These results are taken from ChEMBL document CHEMBL5465560, “Selectivity Literature for EUbOPEN Chemogenomic Library” (2024).

Test [1] concerns the target Mitogen-activated protein kinase 7 (Homo sapiens) (UniProt Q13164). The experiment in a line: Selectivity interaction (Rxn Biology Kinase assay) EUB0001632a MAPK7. The following applies: at 10 µM.
The target of test [2] is T1, Serine/threonine-protein kinase Nek2 (Homo sapiens) (UniProt P51955).
T1 sequence (whole entry): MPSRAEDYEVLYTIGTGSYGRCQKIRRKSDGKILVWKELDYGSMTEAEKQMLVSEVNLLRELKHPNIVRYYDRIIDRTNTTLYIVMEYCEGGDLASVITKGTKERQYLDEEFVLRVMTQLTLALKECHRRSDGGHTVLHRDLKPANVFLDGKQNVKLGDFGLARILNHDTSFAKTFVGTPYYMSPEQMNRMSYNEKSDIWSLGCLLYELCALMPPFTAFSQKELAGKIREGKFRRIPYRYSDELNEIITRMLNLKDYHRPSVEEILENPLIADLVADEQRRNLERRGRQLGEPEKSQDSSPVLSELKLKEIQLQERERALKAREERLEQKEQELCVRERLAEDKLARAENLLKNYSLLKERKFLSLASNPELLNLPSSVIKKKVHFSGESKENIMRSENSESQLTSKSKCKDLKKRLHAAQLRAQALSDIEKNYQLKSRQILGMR
The experiment in a line: Selectivity interaction (Kinase panel (Z-LYTE Assay)) EUB0001632a NEK2. The settings on record: at 10 µM.

Test [3] addresses T2, Serine/threonine-protein kinase 17A (Homo sapiens) (UniProt Q9UEE5).
T2 sequence (whole entry): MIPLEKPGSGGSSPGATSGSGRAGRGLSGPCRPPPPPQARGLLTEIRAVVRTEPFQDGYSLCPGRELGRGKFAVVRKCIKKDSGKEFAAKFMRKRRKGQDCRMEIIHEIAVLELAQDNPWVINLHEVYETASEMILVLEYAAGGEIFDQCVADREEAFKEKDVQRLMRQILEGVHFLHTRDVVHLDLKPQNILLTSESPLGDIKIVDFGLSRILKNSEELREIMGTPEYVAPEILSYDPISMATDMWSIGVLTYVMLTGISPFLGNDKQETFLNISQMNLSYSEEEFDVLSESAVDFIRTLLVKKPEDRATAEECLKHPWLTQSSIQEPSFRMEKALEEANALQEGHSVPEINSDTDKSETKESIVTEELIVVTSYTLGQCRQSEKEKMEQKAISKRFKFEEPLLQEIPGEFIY
Description: Selectivity interaction (Ambit KINOMEscan and KiNATiv profiling in Jurkat cells) EUB0000090b STK17A. It counts as cell-based. The settings on record: at 1 µM.

In test [4] the target is Ephrin type-A receptor 7 (Homo sapiens) (UniProt Q15375). The settings on record: at 10 µM.
The target is the same in test [5]. The experiment in a line: Selectivity interaction (KinomeScan (DiscoverX)) EUB0001079a EPHA7. The following applies: at 1 µM.
For test [6], the target named is Mitogen-activated protein kinase kinase kinase kinase 1 (Homo sapiens) (UniProt Q92918). Description: Selectivity interaction (ActivX KiNativ screen (kinase selectivity in THP-1 cell lysates)) EUB0000639a MAP4K1. It counts as subcellular. The settings on record: lysate, at 5 µM.
Test [7] has as its target Delta-type opioid receptor (Homo sapiens, UniProt P41143). Description: Selectivity interaction (Eurofins CEREP Diversity Profile (receptors and ion channels)) EUB0000279b OPRD1. The following applies: at 10 µM.
The target in test [8] is Myosin light chain kinase 2, skeletal/cardiac muscle (Homo sapiens) (UniProt Q9H1R3). Description: Selectivity interaction (KinomeScan (DiscoverX)) EUB0000045b MYLK2.
Test [9] deals with T3, Ephrin type-B receptor 4 (Homo sapiens) (UniProt P54760).
T3 sequence (whole entry): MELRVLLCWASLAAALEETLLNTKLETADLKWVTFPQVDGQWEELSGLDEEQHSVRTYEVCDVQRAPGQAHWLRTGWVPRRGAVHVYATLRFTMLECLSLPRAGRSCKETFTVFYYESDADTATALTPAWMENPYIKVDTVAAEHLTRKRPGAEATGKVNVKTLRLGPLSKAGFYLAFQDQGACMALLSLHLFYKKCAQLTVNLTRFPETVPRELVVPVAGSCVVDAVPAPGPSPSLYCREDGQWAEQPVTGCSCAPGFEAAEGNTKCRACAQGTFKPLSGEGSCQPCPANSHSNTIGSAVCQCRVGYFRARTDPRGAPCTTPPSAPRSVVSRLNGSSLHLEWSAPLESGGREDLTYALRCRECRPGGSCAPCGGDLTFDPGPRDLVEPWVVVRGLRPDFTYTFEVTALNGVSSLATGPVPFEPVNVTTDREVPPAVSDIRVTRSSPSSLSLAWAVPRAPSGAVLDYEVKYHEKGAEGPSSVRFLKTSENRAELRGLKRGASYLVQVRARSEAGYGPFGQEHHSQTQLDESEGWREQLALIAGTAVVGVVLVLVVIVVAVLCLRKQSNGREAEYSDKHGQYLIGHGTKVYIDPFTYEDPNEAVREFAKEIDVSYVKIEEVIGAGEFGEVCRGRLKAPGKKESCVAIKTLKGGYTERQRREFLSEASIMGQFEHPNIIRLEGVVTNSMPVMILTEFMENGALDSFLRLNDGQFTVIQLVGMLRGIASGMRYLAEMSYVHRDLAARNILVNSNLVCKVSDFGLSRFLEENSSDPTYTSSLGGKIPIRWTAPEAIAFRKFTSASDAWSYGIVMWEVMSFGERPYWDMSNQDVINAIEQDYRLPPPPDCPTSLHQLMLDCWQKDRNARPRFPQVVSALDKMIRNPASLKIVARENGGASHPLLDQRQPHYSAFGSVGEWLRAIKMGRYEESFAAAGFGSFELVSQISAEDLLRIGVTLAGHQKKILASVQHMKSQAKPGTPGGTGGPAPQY
The experiment in a line: Selectivity interaction (KinomeScan (DiscoverX)) EUB0000618a EPHB4. The settings on record: at 10 µM.

For test [10], the target named is Vascular endothelial growth factor receptor 1 (Homo sapiens) (UniProt P17948). The experiment in a line: Selectivity interaction (KinomeScan (DiscoverX)) EUB0000618a FLT1. The settings on record: at 10 µM.

Structures are written as SMILES.

Sequence of Ephrin type-A receptor 7 (Homo sapiens) (Q15375 28-998 limits assumed): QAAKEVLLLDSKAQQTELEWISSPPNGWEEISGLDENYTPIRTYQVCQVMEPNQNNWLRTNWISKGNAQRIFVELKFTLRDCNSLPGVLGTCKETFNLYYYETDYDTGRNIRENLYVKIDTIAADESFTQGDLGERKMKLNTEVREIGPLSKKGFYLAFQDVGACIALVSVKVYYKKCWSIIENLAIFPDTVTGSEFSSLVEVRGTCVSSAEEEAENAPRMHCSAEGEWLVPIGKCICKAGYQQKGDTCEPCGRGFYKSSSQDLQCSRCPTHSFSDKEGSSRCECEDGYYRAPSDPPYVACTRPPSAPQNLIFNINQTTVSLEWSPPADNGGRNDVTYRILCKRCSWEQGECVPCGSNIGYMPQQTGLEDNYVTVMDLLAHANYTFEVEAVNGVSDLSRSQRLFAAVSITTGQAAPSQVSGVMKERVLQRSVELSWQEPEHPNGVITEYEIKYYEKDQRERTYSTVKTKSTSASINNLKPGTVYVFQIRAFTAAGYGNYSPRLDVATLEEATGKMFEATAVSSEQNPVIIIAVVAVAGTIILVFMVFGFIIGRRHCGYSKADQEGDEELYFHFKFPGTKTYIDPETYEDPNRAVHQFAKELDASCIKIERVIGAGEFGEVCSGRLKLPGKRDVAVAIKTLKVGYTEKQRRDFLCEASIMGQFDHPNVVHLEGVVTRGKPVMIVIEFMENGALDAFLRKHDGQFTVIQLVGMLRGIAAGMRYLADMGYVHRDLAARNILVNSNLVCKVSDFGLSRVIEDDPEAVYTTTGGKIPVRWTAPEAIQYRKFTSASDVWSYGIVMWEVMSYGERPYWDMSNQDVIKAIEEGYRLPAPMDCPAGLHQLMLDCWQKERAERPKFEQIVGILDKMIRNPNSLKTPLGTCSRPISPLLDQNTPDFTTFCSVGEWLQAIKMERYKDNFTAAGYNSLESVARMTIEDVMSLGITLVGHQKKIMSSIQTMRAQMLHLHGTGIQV
Sequence of Myosin light chain kinase 2, skeletal/cardiac muscle (Homo sapiens) (Q9H1R3 whole entry): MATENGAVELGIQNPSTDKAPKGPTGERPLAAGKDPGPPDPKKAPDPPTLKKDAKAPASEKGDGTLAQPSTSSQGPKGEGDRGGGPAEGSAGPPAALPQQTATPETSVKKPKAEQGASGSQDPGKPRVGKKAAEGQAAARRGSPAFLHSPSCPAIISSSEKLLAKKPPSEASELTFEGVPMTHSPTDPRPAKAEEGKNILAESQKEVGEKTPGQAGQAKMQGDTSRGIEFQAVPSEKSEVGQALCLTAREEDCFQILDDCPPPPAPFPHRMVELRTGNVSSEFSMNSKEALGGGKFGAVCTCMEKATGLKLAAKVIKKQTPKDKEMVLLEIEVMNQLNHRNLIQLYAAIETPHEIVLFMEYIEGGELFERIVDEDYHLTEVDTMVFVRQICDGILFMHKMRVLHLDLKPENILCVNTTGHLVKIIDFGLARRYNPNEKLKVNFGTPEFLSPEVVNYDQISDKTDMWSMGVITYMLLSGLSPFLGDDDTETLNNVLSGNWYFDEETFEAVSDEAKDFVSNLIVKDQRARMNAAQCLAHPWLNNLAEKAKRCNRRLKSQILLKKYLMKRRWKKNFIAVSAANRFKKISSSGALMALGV
Sequence of Vascular endothelial growth factor receptor 1 (Homo sapiens) (P17948 whole entry): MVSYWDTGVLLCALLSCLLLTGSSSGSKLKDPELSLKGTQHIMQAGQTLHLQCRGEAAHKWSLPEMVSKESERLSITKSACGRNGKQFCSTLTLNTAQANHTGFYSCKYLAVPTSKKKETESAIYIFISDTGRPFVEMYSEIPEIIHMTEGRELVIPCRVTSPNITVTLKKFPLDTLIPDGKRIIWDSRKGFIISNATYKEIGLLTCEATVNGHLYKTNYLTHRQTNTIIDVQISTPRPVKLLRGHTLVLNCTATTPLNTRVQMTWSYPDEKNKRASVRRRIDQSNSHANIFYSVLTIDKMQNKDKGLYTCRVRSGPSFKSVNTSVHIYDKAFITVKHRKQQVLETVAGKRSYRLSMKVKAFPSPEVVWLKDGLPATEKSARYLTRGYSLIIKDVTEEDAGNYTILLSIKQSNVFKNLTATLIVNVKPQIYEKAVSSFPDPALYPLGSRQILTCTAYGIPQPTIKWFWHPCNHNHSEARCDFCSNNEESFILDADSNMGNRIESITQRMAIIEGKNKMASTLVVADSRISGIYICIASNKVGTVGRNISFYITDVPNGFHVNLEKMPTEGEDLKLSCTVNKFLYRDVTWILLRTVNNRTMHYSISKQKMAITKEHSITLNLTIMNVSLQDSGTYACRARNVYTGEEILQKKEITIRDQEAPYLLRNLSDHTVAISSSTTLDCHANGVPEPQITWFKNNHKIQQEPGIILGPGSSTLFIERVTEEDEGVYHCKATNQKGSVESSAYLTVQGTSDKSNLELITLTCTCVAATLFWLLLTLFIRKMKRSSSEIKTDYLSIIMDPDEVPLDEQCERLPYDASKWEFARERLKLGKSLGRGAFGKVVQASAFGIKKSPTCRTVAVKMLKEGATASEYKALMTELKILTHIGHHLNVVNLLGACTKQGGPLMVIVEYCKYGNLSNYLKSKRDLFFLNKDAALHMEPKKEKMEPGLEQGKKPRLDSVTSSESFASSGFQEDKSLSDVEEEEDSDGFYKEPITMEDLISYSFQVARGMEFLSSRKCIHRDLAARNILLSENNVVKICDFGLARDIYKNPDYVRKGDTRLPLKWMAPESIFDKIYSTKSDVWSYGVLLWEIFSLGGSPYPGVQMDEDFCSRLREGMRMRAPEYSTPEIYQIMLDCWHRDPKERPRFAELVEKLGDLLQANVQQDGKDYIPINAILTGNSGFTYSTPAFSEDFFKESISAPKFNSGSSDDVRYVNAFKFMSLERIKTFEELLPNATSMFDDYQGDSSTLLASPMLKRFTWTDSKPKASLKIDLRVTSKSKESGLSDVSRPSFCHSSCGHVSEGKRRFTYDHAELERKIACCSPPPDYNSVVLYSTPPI
Sequence of Delta-type opioid receptor (P41143 whole entry): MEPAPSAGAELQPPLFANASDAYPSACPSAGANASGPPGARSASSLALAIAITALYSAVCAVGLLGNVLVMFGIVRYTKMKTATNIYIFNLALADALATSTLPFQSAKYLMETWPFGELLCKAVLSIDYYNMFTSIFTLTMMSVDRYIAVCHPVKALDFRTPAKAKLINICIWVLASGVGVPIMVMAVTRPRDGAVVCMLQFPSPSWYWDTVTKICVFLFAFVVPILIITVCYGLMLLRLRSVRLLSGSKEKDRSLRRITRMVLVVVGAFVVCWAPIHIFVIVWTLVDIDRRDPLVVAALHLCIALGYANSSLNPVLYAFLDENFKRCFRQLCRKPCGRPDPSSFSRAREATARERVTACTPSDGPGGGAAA
Sequence of Mitogen-activated protein kinase 7 (Homo sapiens) (Q13164 2-816 limits assumed): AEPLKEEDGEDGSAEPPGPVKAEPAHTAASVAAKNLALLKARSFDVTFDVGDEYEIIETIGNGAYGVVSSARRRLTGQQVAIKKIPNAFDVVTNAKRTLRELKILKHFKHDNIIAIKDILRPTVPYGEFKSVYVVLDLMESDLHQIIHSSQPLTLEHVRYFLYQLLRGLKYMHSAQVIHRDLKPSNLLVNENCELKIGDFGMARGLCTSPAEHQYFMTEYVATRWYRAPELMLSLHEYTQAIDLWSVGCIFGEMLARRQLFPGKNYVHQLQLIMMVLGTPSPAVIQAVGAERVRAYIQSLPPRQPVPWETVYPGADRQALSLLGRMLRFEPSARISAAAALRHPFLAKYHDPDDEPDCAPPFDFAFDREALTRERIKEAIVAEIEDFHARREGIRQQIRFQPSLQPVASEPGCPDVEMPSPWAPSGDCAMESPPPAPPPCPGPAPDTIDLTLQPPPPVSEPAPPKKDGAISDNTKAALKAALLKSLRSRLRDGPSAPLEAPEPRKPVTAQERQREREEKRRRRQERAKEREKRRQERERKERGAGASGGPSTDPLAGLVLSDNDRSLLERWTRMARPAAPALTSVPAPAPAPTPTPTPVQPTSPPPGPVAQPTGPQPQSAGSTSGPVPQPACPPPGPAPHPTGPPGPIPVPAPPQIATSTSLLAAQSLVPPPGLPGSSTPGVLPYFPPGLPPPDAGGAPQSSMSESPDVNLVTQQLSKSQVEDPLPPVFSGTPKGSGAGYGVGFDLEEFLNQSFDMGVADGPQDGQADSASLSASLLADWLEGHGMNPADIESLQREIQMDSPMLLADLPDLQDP
Sequence of Mitogen-activated protein kinase kinase kinase kinase 1 (Homo sapiens) (Q92918 whole entry, looked up): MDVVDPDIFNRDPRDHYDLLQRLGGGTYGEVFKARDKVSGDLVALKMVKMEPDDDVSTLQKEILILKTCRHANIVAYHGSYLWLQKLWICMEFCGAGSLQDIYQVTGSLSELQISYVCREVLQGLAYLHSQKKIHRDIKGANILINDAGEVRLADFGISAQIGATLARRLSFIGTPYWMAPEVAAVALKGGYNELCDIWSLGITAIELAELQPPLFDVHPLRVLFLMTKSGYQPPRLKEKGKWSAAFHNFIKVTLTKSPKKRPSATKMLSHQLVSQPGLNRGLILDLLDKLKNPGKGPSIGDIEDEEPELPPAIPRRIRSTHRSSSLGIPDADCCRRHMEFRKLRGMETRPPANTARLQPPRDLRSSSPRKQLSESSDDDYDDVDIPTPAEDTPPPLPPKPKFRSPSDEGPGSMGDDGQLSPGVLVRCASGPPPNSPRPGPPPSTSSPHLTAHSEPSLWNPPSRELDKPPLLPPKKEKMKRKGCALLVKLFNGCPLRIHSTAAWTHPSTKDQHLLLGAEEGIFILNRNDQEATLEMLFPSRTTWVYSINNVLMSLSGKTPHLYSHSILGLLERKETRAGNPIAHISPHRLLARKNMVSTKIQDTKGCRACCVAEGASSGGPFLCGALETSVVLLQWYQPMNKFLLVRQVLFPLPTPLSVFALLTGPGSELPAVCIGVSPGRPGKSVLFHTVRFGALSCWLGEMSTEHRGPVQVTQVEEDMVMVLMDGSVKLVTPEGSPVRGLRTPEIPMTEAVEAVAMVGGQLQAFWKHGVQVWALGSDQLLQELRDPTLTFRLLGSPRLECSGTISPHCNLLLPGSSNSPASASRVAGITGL

Regarding `Cn1cc(-n2cnc3c(NCc4nc5cc(Cl)c(Cl)cc5[nH]4)nc(N4CCOCC4)nc32)cn1`, the % of inhibition in [1] was -42.4%. This compound also registered a % of control in test [2] of 1.81%.
Regarding `CN(C)C/C=C/C(=O)Nc1ccc(C(=O)N2CCCC(Nc3ncc(Cl)c(-c4c[nH]c5ccccc45)n3)C2)cc1` (stereo unspecified), the % of control in test [3] stood at 70%.
Consider `Cc1cc([C@@H](C)Nc2ccccc2C(=O)O)c2nc(N3CCOCC3)cc(=O)n2c1` [AZD-6482], for which the % of control in [4] amounted to 89%.
Compound `Nc1cnc(N2CCc3cc(S(=O)(=O)Nc4c(F)cc(Cl)cc4F)cc(N4CCCC4=O)c32)nc1` [TP-020n] displayed a % of control in [5] of 85%.
As for `CC[C@@H]1[C@H](F)C(=O)N[C@@H]1COc1nccc2cc(C(N)=O)c(OC)cc12` [ZIMLOVISERTIB], the % of inhibition in test [6] is -4.3%.
In test [7], `CC(=O)c1cc(-c2ccccc2OCC2CC2)c2ncccn12` showed a % of control of 91%.
As for `C=CC(=O)Nc1cc(-n2c(=O)ccc3cnc4ccc(-c5ccc(NS(C)(=O)=O)cc5)cc4c32)ccc1C`, the % of control in [8] (at 1 µM) was 93%; in [8] (at 10 µM), 100%.
Regarding `O[C@H]1CC[C@H](Nc2ncc3nc(Nc4c(F)cc(F)cc4F)n([C@H]4CCOC4)c3n2)CC1`, the % of control in test [9] stood at 100%; in test [10] it was 86%.
